Test results as given in article PMC3038857, “Using Nuclear Receptor Activity to Stratify Hepatocarcinogens” (PLoS ONE, 2011).

Key:
[1] = biological target: T1, AHR (aryl hydrocarbon receptor) (Homo sapiens, UniProt P35869); assay: ATG_Ahr_CIS: Factorial reporter gene assay (multiplexed transcription reporter, HepG2); assay type: cell-based; settings: HepG2
T1 construct: endogenous in cells; host or cells: HepG2
T1 sequence (P35869 11-848): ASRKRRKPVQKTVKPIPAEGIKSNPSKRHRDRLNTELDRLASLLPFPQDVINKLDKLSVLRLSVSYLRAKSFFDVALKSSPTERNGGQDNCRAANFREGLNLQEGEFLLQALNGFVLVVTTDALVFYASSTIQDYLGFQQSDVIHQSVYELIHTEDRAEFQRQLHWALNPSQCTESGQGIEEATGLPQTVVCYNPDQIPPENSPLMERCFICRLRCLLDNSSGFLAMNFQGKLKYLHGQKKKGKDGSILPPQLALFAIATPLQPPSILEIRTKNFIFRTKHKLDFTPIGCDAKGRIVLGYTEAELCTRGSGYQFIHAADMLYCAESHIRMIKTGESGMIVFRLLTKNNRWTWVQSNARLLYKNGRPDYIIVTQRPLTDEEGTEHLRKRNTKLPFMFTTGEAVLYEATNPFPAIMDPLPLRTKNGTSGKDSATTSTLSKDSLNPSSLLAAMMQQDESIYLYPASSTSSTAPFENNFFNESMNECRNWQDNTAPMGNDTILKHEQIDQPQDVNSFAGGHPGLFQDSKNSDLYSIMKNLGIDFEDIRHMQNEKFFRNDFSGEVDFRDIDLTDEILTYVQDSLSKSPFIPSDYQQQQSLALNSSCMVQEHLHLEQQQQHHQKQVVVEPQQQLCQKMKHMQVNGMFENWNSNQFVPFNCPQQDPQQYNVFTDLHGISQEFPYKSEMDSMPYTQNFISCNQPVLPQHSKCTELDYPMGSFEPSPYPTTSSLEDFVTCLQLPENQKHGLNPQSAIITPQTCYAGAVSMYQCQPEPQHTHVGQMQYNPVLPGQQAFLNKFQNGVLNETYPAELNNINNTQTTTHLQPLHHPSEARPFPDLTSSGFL
Experimental: (§1) A multiple reporter transcription unit (MRTU) library consisting of 48 transcription factor binding sites was transfected into the HepG2 human liver hepatoma cell line. In addition to the cis-acting reporter genes (CIS), a modification of the approach was used to generate a trans-system (TRANS) with a mammalian one-hybrid assay consisting of an additional 25 MRTU library reporting the activity of nuclear receptor super-family members. […] These assays were performed by Attagene Inc. (Morrisville NC) under contract to EPA.
(§2) In addition to the cis-acting reporter genes (CIS), a modification of the approach was used to generate a trans-system (TRANS) with a mammalian one-hybrid assay consisting of an additional 25 MRTU library reporting the activity of nuclear receptor super-family members. […] Chemicals were then tested in the CIS and TRANS assays at seven concentrations starting at the MTC and followed by three-fold serial dilutions. These assays were performed by Attagene Inc. (Morrisville NC) under contract to EPA. Detailed description of the methods, data and analysis methods for this dataset will be presented in a separate publication.

[2] = test system: CYP2B6; assay: CLZD_CYP2B6: Change in expression of CYP2B6 (primary human hepatocytes); assay type: cell-based; settings: 24 hr
Method in brief: (§3)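 Five-point concentration series (0.004-40 µM) applied to primary human hepatocytes; 6/24/48 hr timepoints; transcript quantified by multiplexed nuclease protection.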

[3] = test system: CYP3A4; assay: CLZD_CYP3A4: Change in expression of CYP3A4 (primary human hepatocytes); assay type: cell-based; settings: 24 hr
Method in brief: as §3

[4] = test system: Mouse Liver; settings: chronic mouse study, liver; ref ToxRefDB; cited from earlier work
[5] = test system: Rat Liver; settings: chronic rat study, liver; ref ToxRefDB; cited from earlier work
[6] = test system: Rat Liver; settings: chronic rat study, liver; ref ToxRefDB; cited from earlier work; remark: listed apart in the source
[7] = test system: Rat Liver; settings: chronic rat study, liver; ref ToxRefDB; cited from earlier work; remark: listed apart in the source
[8] = biological target: T2, PXR (NR1I2) (Homo sapiens, UniProt O75469); assay: ATG_PXR_TRANS: Factorial reporter gene assay (HepG2); assay type: cell-based; set-up: endogenous in cells; host or cells: HepG2; settings: HepG2
T2 sequence (O75469 1-434): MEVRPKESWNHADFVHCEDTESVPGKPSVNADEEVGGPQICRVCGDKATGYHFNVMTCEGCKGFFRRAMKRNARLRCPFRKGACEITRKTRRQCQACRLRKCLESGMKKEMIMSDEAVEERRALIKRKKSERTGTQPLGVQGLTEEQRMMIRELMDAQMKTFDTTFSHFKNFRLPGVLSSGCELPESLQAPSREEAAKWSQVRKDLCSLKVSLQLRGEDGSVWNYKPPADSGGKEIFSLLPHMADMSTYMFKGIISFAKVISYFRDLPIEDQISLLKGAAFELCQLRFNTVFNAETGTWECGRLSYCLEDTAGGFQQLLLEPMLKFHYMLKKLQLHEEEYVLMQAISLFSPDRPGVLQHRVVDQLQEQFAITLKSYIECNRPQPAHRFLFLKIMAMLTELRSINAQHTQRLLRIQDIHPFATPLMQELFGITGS
Method in brief: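 HepG2 cells transfected with multiplexed reporter libraries: cis-acting binding-site reporters (CIS) and a one-hybrid nuclear-receptor trans system (TRANS). Chemicals tested at seven concentrations, starting at the maximum tolerated concentration with three-fold serial dilutions.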

[9] = biological target: T2, PXR (NR1I2); assay: ATG_PXRE_CIS: Factorial reporter gene assay (HepG2); assay type: cell-based; set-up: endogenous in cells; host or cells: HepG2; settings: HepG2
Method in brief: (§4)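 Transfected HepG2 line; multiplexed reporter read-out. PXRE = cis library (48 TF sites); ERRg/FXR/PPARg = trans one-hybrid library (25 units). Dose series of 7, MTC downward by 3x.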

[10] = biological target: T3, PPARG (peroxisome proliferator-activated receptor gamma) (Homo sapiens, UniProt P37231); assay: ATG_PPARg_TRANS: Factorial reporter gene assay (HepG2); assay type: cell-based; settings: HepG2
T3 construct: expressed in transfected cells; host or cells: HepG2
T3 sequence (P37231 1-505): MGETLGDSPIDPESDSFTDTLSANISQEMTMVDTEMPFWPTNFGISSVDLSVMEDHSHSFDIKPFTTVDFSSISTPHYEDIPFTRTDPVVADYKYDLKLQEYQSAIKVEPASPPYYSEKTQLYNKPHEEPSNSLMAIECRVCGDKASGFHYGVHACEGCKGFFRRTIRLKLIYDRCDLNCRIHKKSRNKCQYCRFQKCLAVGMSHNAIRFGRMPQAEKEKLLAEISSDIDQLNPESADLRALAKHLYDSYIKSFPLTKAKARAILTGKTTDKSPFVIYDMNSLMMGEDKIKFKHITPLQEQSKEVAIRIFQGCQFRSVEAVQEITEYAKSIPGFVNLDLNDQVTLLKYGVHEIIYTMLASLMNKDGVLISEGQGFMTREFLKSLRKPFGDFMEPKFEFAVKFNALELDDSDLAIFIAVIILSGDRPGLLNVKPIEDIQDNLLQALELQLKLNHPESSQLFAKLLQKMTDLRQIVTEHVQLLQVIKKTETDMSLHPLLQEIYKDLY
Method in brief: as §4

[11] = biological target: T4, PXR Human (NR1I2) (Homo sapiens, UniProt O75469); assay: NCGC_PXR_Agonist_human: GAL4 BLAM Reporter gene assay: PXR Human; assay type: cell-based; settings: agonist mode
T4 sequence (O75469 146-434 limits assumed): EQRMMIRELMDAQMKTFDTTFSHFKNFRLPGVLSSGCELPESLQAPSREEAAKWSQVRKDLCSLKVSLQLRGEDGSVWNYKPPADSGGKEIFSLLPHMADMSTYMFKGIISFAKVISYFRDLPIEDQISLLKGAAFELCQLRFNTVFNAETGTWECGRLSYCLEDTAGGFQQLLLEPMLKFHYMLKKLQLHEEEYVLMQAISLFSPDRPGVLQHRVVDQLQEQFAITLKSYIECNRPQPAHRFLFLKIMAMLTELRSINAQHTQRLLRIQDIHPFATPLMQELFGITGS
Experimental: These assays measure binding constants and enzyme inhibition values for nuclear receptors. The targets include [drawing 67] , [drawing 68] , [drawing 69] , [drawing 70] , [drawing 71] , [drawing 72] , [drawing 73] , [drawing 74] , [drawing 75] and [drawing 76] . Each of the nuclear receptor targets was measured in agonist mode. Assays were run at the NIH Chemical Genomics Center (Rockville, MD).
Cell-based HTS Assays: These assays measuring binding constants and enzyme inhibition values for nuclear receptors. The targets include AR, ER, FXR, LXR, PPARα, PPARδ, PPARγ, RXRα, RXRβ and PXR. Each of the nuclear receptor targets was measured in both agonist and antagonist mode, but the antagonist data is still undergoing analysis due to possible interference between cytotoxicity and assay activity, so antagonist mode data were not used in the present analysis. Assays were run at the NIH Chemical Genomics Center (Rockville, MD) as part of the Tox21 collaboration. […] The R^2 was required to be ≥0.5. Values where only the highest concentration exceeded 50% activity were excluded to eliminate weak or false positives. Detailed description of the methods, data and analysis methods for this dataset will be presented in a separate publication.

[12] = biological target: T2, PXR (NR1I2); assay: NVS_NR_hPXR: Human PXR Fluormone PXR (SXR) green (cell-free HTS); assay type: binding
Description: These are a collection of biochemical assays measuring binding constants and enzyme inhibition values. Chemicals were initially screened at a single concentration in duplicate wells at a concentration of 10 [drawing 63] M for cytochrome P-450 assays and 25 [drawing 64] M for all others. […] These assays were run by Caliper Life Sciences (Hanover, MD) under contract to EPA. Short assay descriptions are available at: http://www.caliperls.com/products/contract-research/in-vitro/.
Cell-free HTS Assays: A collection of biochemical assays measuring binding constants and enzyme inhibition values. […] These assays were run by Caliper Life Sciences (Hanover, MD) under contract to EPA. Short assay descriptions are available at http://www.caliperls.com/products/contract-research/in-vitro/. Values for all endpoints were imported into GeneData Screener (Basel, Switzerland) and normalised to solvent controls from the same plate as the tested compounds and expressed as percent of neutral control. Concentration-response curves were fit in GeneData Screener (Basel, Switzerland) Condeseo module using the Hill equation and AC50 values were determined. […] Detailed description of the methods, data and analysis methods for this dataset are described in a separate publication.

[13] = biological target: T5, ESR1 (estrogen receptor 1) (Homo sapiens, UniProt P03372); assay: ATG_ERa_TRANS: Factorial reporter gene assay (HepG2); assay type: cell-based; settings: HepG2
T5 construct: expressed in transfected cells; host or cells: HepG2
T5 sequence (P03372 whole entry): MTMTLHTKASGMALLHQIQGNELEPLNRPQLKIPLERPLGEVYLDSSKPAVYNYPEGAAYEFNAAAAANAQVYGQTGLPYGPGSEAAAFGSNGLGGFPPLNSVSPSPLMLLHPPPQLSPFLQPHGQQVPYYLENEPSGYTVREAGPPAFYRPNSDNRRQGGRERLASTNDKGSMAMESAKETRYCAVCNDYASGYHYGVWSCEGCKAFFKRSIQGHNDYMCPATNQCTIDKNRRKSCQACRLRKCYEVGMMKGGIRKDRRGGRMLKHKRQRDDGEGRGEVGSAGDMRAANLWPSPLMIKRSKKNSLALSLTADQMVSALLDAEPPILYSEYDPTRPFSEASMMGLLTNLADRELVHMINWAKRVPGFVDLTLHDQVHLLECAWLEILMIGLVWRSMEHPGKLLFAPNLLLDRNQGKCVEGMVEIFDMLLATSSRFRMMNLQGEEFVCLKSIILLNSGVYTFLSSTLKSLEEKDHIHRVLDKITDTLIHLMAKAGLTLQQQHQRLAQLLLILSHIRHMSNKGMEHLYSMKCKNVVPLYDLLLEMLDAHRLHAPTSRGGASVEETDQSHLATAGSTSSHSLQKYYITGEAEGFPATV
Experimental: as §1, §2

[14] = test system: CYP1A2; assay: CLZD_CYP1A2: Change in expression of CYP1A2 (primary human hepatocytes); assay type: cell-based; settings: 24 hr
Method in brief: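 Cultured primary human hepatocytes treated with chemicals for 6, 24 or 48 hr across five concentrations spanning 0.004-40 µM, then transcript level measured by quantitative nuclease protection in a multiplexed format.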

For COCC(=O)N(c1c(C)cccc1C)C(C)C(=O)OC (stereo not drawn) [row 196], the ATG_Ahr_CIS [1] was 4.149, the CLZD_CYP2B6_24 [2] was 5.11 and the CLZD_CYP3A4_24 [3] was 4.985. The CHR_Mouse_Liver_1_AnyLesion [4] was 6, the CHR_Rat_Liver_1_AnyLesion [5] was 6 and the CHR_Rat_Liver_2_PreneoplasticLesion [6] was 0. For the same molecule, the CHR_Rat_Liver_3_NeoplasticLesion [7] was 0, the ATG_PXR_TRANS [8] was 4.854 and the ATG_PXRE_CIS [9] was 4.796.
Molecule CNC(=S)[S-].O.O.O.[Na+] [row 197] has an ATG_Ahr_CIS [1] of 4.444, an ATG_PPARg_TRANS [10] of 4.569 and an NCGC_PXR_Agonist_human [11] of 4.503. For the same molecule, the ATG_PXRE_CIS [9] was 4.167.
With CCCCOC(=O)c1ccccc1C(=O)O [row 215] the ATG_Ahr_CIS [1] was 4.119 and the NVS_NR_hPXR [12] was 4.801.
With CCCCC(C#N)(Cn1cncn1)c1ccc(Cl)cc1 (stereo not drawn) [row 217] the ATG_ERa_TRANS [13] was 4.398, the CLZD_CYP1A2_24 [14] was 5.223 and the CLZD_CYP2B6_24 [2] was 4.948. For the same molecule, the CLZD_CYP3A4_24 [3] was 5.217, the CHR_Mouse_Liver_1_AnyLesion [4] was 6 and the CHR_Rat_Liver_1_AnyLesion [5] was 6. For the same molecule, the CHR_Rat_Liver_2_PreneoplasticLesion [6] was 0, the CHR_Rat_Liver_3_NeoplasticLesion [7] was 0 and the ATG_PXRE_CIS [9] was 4.886.
CCCN(CCC)c1c([N+](=O)[O-])cc(S(N)(=O)=O)cc1[N+](=O)[O-] [row 224] gave a CLZD_CYP2B6_24 [2] of 4.989, a CLZD_CYP3A4_24 [3] of 4.897 and an NCGC_PXR_Agonist_human [11] of 5.133. The NVS_NR_hPXR [12] was 5.395, the CHR_Rat_Liver_1_AnyLesion [5] was 0 and the CHR_Rat_Liver_2_PreneoplasticLesion [6] was 0. The CHR_Rat_Liver_3_NeoplasticLesion [7] was 0, the ATG_PXR_TRANS [8] was 5.538 and the ATG_PXRE_CIS [9] was 5.921.
